Test system: ophthalmic mucous membrane
Conditions: rabbit, in vivo
Method: The testing method of the present test was based on the guidelines given by OECD. That means, 3 rabbits were used in this study, and a test drug was administered once into one eye of a rabbit in the conjunctival sac, and the other eye was used as control. […] Eyes were washed using lukewarm water of about 35° C. at the observation 24 hours after the administration. Scores of the conjunctival reaction obtained by administration of each test drug were calculated according to the assessment criteria of Draize method. The maximum of total score at each observation time was obtained for each test drug and for each test animal, and the average was calculated, then irritation evaluation in 8 stages (FIG. 9) was carried out according to the Kay and Calandra ophthalmic mucous membrane irritation classification method.

sodium polystyrene sulphonate
Kay and Calandra ophthalmic mucous membrane irritation classification (8 levels): Moderately irritating | average value (score) of the maximum Draize score: 29.0
